Assay results reported in paper PMC7714071, “Interaction of amyloid beta with humanin and acetylcholinesterase is modulated by ATP” (FEBS Open Bio, 2020).

How the values were obtained:
[1] = test system: Aβ from A549 cell-conditioned media; assay: ELISA, HN (endogenous and exogenously added) and AChE bound to Aβ from A549 media on 82E1 antibody; assay type: binding, human; settings: Fig. 6A
Procedure: Human NSCLC cell lines, A549 (ATCC CCL‐185) and H1299 (ATCC CRL‐5803), were purchased from the American Type Culture Collection (ATCC, Manassas, VA, USA). Cells were seeded as we reported earlier in 5 mL HyClone Dulbecco's modified Eagle's medium/nutrient mixture F‐12 (DMEM/F12) (GE Healthcare Life Sciences, Pittsburgh, PA, USA), supplemented with 10% Fetalgro bovine growth serum (FBS; RMBIO, Missoula, MT, USA), 50 U·mL^−1 penicillin, and […] streptomycin (Invitrogen, Life Technologies, Carlsbad, CA, USA) in 25‐cm^2 tissue culture flasks, and allowed to grow overnight in an incubator at 37 °C, 95% humidity, and 5% CO2. The cells were counted after trypan blue staining, with a hemocytometer.
ELISAs were carried out as we previously reported. Nunc MaxiSorp 96‐well flat bottom plate (Thermo Fisher) wells were coated with samples as indicated. The plates were incubated overnight at 4 °C on a shaker to allow binding of the samples to the plate wells. After the incubation, the wells were washed 4× with TBST, filled with 400 µL blocking buffer (110 mM KCl, 5 mM NaHCO3, 5 mM MgCl2, 1 mM EGTA, 0.1 mM CaCl2, 20 mM HEPES, 1% BSA, pH 7.4), and incubated with shaking overnight at 4 °C. The wells were then washed 4× with TBST, and 100 µL of sample at the desired concentration was added to each well and incubated with shaking overnight at 4 °C. TBST was then used to wash the wells 4× before proceeding in one of two ways: (a) biotinylated samples were analyzed by adding 100 µL streptavidin–HRP conjugate in TBST (1 : 2500 dilution) to the samples followed by incubation for 3 h at RT on a shaker, or (b) samples without biotin were analyzed by adding 100 µL TBST containing the primary antibody as per the manufacturer's recommendation, incubating for 3 h at RT on a shaker, followed by washing the wells 4× with TBST. The secondary antibody in 100 µL TBST was then added to the samples following the manufacturer's recommendation and incubated for 1 h at RT on a shaker. […] The reaction was stopped with 100 µL 2 M H2SO4 after incubating at RT for 0.5–15 min, resulting in a yellow color change, measured by absorbance at 450 nm. To monitor nonspecific binding, negative control wells on the plates included, for example, bound Aβ peptide then adding all components, streptavidin‐HRP and TMB, but without addition of biotin‐HN. Some wells were coated with 2.5, 10, 50, 100, 500, and 5000 nM biotin‐HN or Aβ to allow conversion of the OD measurements to concentrations of bound material. Before analysis, the OD from the data was corrected for nonspecific binding by subtracting the mean background absorbance for the negative controls. Typically, in control wells incubated on each plate, the background binding is about 10–15% of the maximum binding seen with addition of biotin peptides or antibodies. Statistical analysis was determined by the […] PRISM 8.4.3 software (San Diego, CA, USA). Data were expressed as the mean ± SD. […]
Anti‐Aβ‐specific antibodies (82E1) were added (1 : 1000 dilution) to ELISA plate wells (Fig. 6). The wells were blocked, and then, 300 µL of the conditioned media (0.5 µg·µL^−1) of A549 or H1299 cells, 72 h postserum starvation, was added in the absence or presence of increasing HN concentrations, and the HN and AChE bound were detected using the corresponding specific primary antibodies. Fold change relative to controls that included all components but without the primary antibodies was calculated and fit with a nonlinear regression curve using the […] […]

A549 cells = settings: cited from earlier work
Procedure: Since addition of ATP appears to increase binding of HN to Aβ, and conversely, decreases the interaction of Aβ with AChE (Figs 3, 4, 5, 6), we tested the effect of added ATP on A549 and H1299 cell viability (Fig. 7). Exogenously added ATP at either 100 µM or 1 mM had no effect on viability of either A549 (Fig. 7A) or H1299 cells (Fig. 7B).

Aβ = settings: cited from earlier work
Excerpt: Soluble oligomers of proteins implicated in different diseases are primarily thought to be the main toxic form as opposed to the larger fibrillar assemblies. Aβ regions containing Tyr and Ser (H6DSGY10 and G25SNKG29) (Fig. 1) along with post‐translational modifications of these regions, have been implicated in misfolding, oligomerization, or fibril formation of Aβ [5, 10, 11, 16, 41]. […] In addition to ATP, the glycosaminoglycan, heparan sulfate (HS), has been previously reported to i ... || Access to the central domain of Aβ (residues 17–24) flanked by Lys‐16 and Lys‐28, known to be a critical structural element in fibrillar Aβ aggregates, might be regulated by binding of AChE and HN to their overlapping binding sites on Aβ. […] Moreover, we s ...

In the case of `Nc1ncnc2c1ncn2[C@@H]1O[C@H](COP(=O)(O)OP(=O)(O)OP(=O)(O)O)[C@@H](O)[C@H]1O` [ATP, Adenosine triphosphate], the “effect of ATP on binding of exogenously added HN to Aβ” value ([1]; 0.1 mM, 1 mM ATP (more pronounced at 1 mM), A549 media) is reported as “decreased binding of exogenously added HN”, the “effect of ATP on binding of Aβ to AChE” value ([1]; A549 cell-conditioned media, 82E1) is reported as “decreased upon addition of ATP” and the “effect of ATP on binding of endogenous HN to Aβ” value ([1]; increasing ATP (0.1 mM, 1 mM; more pronounced at 1 mM), A549 media, 82E1) is reported as “increased binding of endogenous HN”. For the same compound, the “effect of ATP on A549 cell viability” value (A549 cells; 100 μM or 1 mM ATP) was “no effect” and the “effect on misfolding of Aβ” value (Aβ; physiological intracellular concentrations, enhanced by magnesium) was “reduced misfolding of Aβ”.
In the case of Humanin [HN], the “HN concentration at which signal begins to level off” value ([1]; exogenous HN, A549 media) is listed as “around 50 nM”, the “binding of exogenous HN to Aβ” value ([1]; increasing exogenous HN, A549 media, 82E1) is listed as “increased binding to Aβ” and the “cell viability upon ID of HN” value (A549 cells; HN immunodepleted from A549 conditioned media) is listed as “diminished cell viability”. The “apoptosis upon ID of HN” value (A549 cells; HN-ID A549 media) was “increased apoptosis” and the “Aβ aggregation in presence of both HN and AChE” value (Aβ; to levels close to HN alone) was “greatly diminished”.
In the case of heparan sulfate [HS], the “effect of HS on Aβ aggregation” value (Aβ) is listed as “increasing their aggregation”.
